Like-named read-outs stand apart in the source and are kept apart here.
Target: T1, human KDR enzyme (Homo sapiens, UniProt P35968)
T1 construct: The cytoplasmic domain of human KDR enzyme is cloned in the form of a GST fusion; GST; made in house; host or cells: SF21 insect cells (baculovirus, pFastBac)
Assay: Phosphorylation of the substrate PLCγ by the enzyme KDR in vitro (flashplate technique)
Assay type: biochemical
Conditions: for inhibition at 10 µM: product tested at 10 μM, read-out: % of inhibition of the phosphorylation of PLCγ by KDR (product tested at a concentration of 10 μM)
Procedure: The inhibitory effect of the compounds is determined in a test of phosphorylation of a substrate by the enzyme KDR in vitro by the flasplate technique (96-well plate, NEN). The cytoplasmic domain of human KDR enzyme is cloned in the form of a GST fusion into the baculovirus expression vector pFastBac. The protein is expressed in the SF21 cells and purified to about 60% homogeneity.
The kinase activity of KDR is measured in 20 mM MOPS, 10 mM MgCl2, 10 mM MnCl2, 1 mM DTT, 2.5 mM EGTA, 10 mM β-glycerophosphate, pH 7.2 in the presence of 10 mM MgCl2, 100 μM Na3VO4, 1 mM NaF. 10 μl of the compound are added to 70 μl of kinase buffer containing 100 ng of KDR enzyme at 4° C. The reaction is initiated by adding 20 μl of solution containing 2 μg of substrate (fragment SH2-SH3 of PLCγ expressed in the form of a GST fusion protein), 2 μCi γ33P[ATP] and 2 μM cold ATP. After incubating for 1 h at 37° C., the reaction is quenched by adding 1 volume (100 μl) of 200 mM EDTA. The incubation buffer is removed and the wells are washed three times with 300 μl of PBS. The radioactivity is measured in each well using a Top Count NXT instrument (Packard).
Background noise is determined by measuring the radio-activity in wells in quadruplet containing radioactive ATP and the substrate alone.
An activity control is measured in wells in quadruplet containing all the reagents (γ33P-[ATP], KDR and the substrate PLCγ) and in the absence of compound.
The inhibition of the KDR activity with the compound of the invention is expressed as a percentage of inhibition of the control activity determined in the absence of compound.
The compound SU5614 (Calbiochem) (1 μM) is included in each plate as inhibition control.
The IC50 values for the compounds are calculated by plotting the dose-response curves. The IC50 corresponds to the concentration of compound that induces a 50% inhibition of the kinase activity.

[1] = Table VII, degrees of activity by IC50 range, read-out: Activity
[2] = read-out: IC50 (μM) on inhibition of the phosphory-lation of PLCγ by KDR

T1 sequence (P35968 786-1356 limits assumed): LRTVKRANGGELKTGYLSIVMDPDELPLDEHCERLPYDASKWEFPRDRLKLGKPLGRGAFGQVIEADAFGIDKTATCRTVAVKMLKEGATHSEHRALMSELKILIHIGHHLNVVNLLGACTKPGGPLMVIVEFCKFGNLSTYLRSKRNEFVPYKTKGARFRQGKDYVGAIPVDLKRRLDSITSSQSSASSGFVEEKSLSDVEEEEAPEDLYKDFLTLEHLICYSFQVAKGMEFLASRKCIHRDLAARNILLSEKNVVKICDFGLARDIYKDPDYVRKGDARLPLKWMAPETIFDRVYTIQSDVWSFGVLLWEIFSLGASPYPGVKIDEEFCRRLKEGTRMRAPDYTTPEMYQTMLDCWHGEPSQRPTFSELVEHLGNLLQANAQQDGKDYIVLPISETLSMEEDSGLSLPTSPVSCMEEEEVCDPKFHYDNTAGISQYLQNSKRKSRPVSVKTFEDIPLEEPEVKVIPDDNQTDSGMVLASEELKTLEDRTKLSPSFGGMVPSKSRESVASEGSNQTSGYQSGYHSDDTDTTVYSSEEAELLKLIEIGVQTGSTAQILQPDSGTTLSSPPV

| IC50 [1] | SMILES | other results |
| --- | --- | --- |
| 0.3 to 3 µM | c1ccc(COc2cc(-c3nc4ccccc4[nH]3)[nH]n2)cc1 [Example 181, 2-[5-(benzyloxy)-2H-pyrazol-3-yl]-1H-benzoimidazole] |  |
| 0.3 to 3 µM | CC(C)(C)OC(=O)N1CCN(C(=O)c2ccc3[nH]c(-c4n[nH]c5ccccc45)nc3c2)CC1 [Example 175, 4-[2-(1H-Indazol-3-yl)-1H-benzoimidazole-5-carbonyl]-piperazine-1-carboxylic acid tert-butyl ester] |  |
| > 3 µM | Cc1ccc(-c2ccc3nc(-c4[nH]nc5ccccc45)[nH]c3c2)cc1C [Example 116, 3-[6-(3,4-Dimethyl-phenyl)-1H-benzoimidazol-2-yl]-2H-indazole] |  |
| > 3 µM | O=C(Oc1cc(-c2nc3ccccc3[nH]2)[nH]n1)c1ccc(-c2ccccc2)cc1 [Example 225, Biphenyl-4-carboxylic acid 5-(1H-benzoimidazol-2-yl)-1H-pyrazol-3-yl ester] |  |
| > 3 µM | N#Cc1cccc(COc2cc(-c3nc4ccccc4[nH]3)[nH]n2)c1 [Example 186, 3-[5-(1H-Benzoimidazol-2-yl)-1H-pyrazol-3-yloxymethyl]-benzonitrile] |  |
| 0.3 to 3 µM | Cn1cc(CNC(=O)c2ccc3[nH]c(-c4n[nH]c5ccccc45)nc3c2)cn1 [Example 51, 2-(1H-Indazol-3-yl)-1H-benzoimidazole-5-carboxylic acid (1-methyl-1H-pyrazol-4-ylmethyl)-amide] |  |
| > 3 µM | O=C(Oc1cc(-c2nc3ccccc3[nH]2)[nH]n1)C1CC1 [Example 221, Cyclopropanecarboxylic acid 5-(1H-benzoimidazol-2-yl)-1H-pyrazol-3-yl ester] |  |
| 0.3 to 3 µM | O=C(NCc1cccs1)c1ccc2[nH]c(-c3n[nH]c4ccccc34)nc2c1 [Example 34, 2-(1H-Indazol-3-yl)-1H-benzoimidazole-5-carboxylic acid (thiophen-2-ylmethyl)-amide] |  |
| 0.3 to 3 µM | CC(C)OCCCNC(=O)c1ccc2[nH]c(-c3n[nH]c4ccccc34)nc2c1 [Example 50, 2-(1H-Indazol-3-yl)-1H-benzoimidazole-5-carboxylic acid (3-isopropoxy-propyl)-amide] |  |
| 0.3 to 3 µM | CCCC/C=C/c1ccc2nc(-c3[nH]nc4ccccc34)[nH]c2c1 [Example 119, 3-(6-Hex-1-enyl-1H-benzoimidazol-2-yl)-2H-indazole] |  |
| 0.3 to 3 µM | O=C(CCc1ccccc1)Oc1cc(-c2nc3ccccc3[nH]2)[nH]n1 [Example 224, 3-Phenyl-propionic acid 5-(1H-benzoimidazol-2-yl)-1H-pyrazol-3-yl ester] |  |
| 0.3 to 3 µM | OCc1cccc(-c2ccc3nc(-c4[nH]nc5ccccc45)[nH]c3c2)c1 [Example 133, {3-[2-(2H-Indazol-3-yl)-3H-benzoimidazol-5-yl]-phenyl}-methanol] |  |
| > 3 µM | O=C(COc1cc(-c2nc3ccccc3[nH]2)[nH]n1)C12C[C@H]3C[C@@H](C1)C[C@@H](C2)C3 [Example 206, 1-Adamantan-1-vl-2-[5-(1H-benzoimidazol-2-yl)-1H-pyrazol-3-yloxy]-ethanone] |  |
| < 0.3 µM | CS(=O)(=O)c1ccc(CNC(=O)c2ccc3[nH]c(-c4n[nH]c5ccccc45)nc3c2)cc1 [Example 31, 2-(1H-Indazol-3-yl)-1H-benzoimidazole-5-carboxylic acid 4-methanesulfonyl-benzylamide] |  |
| 0.3 to 3 µM | COc1cccc(COc2cc(-c3nc4ccccc4[nH]3)[nH]n2)c1 [Example 197, 2-[5-(3-Methoxy-benzyloxy)-2H-pyrazol-3-yl]-1H-benzoimidazole] |  |
| 0.3 to 3 µM | COc1cccc(CNC(=O)c2ccc3[nH]c(-c4n[nH]c5ccccc45)nc3c2)c1 [Example 40, 2-(1H-Indazol-3-yl)-1H-benzoimidazole-5-carboxylic acid 3-methoxy-benzylamide] |  |

Second part, the compound before the results:

| SMILES | IC50 [1] | other results |
| --- | --- | --- |
| O=C(Nc1ccccc1)c1cccc2nc(-c3n[nH]c4ccccc34)[nH]c12 [Example 94, 2-(1H-Indazol-3-yl)-3H-benzoimidazole-4-carboxylic acid phenylamide] | 0.3 to 3 µM |  |
| O=C(NCc1csc2ccccc12)c1ccc2[nH]c(-c3n[nH]c4ccccc34)nc2c1 [Example 42, 2-(1H-Indazol-3-yl)-1H-benzoimidazole-5-carboxylic acid (benzo[b]thiophen-3-ylmethyl)-amide] | 0.3 to 3 µM |  |
| Fc1cc(-c2ccc3nc(-c4[nH]nc5ccccc45)[nH]c3c2)ccc1-c1ccccc1 [Example 131, 3-[6-(2-Fluoro-biphenyl-4-yl)-1H-benzoimidazol-2-yl]-2H-indazole] | > 3 µM |  |
| c1ccc(-c2ccc3nc(-c4[nH]nc5ccccc45)[nH]c3c2)cc1 [Example 97, 3-(6-Phenyl-1H-benzimidazol-2-yl)-2H-indazole] | > 3 µM |  |
| Fc1ccc(-c2ccc3nc(-c4[nH]nc5ccccc45)[nH]c3c2)cc1 [Example 100, 3-[6-(4-Fluoro-phenyl)-1H-benzoimidazol-2-yl]-2H-indazole] | 0.3 to 3 µM |  |
| O=C(NCc1cccnc1)c1cccc2nc(-c3n[nH]c4ccccc34)[nH]c12 [Example 80, 2-(1H-Indazol-3-yl)-3H-benzoimidazole-4-carboxylic acid (pyridin-3-ylmethyl)-amide] | 0.3 to 3 µM |  |
| COc1ccc(-c2ccc3nc(-c4[nH]nc5ccccc45)[nH]c3c2)cc1 [Example 102, 3-[6-(4-Methoxy-phenyl)-1H-benzoimidazol-2-yl]-2H-indazole] | 0.3 to 3 µM |  |
| Cn1c(CNC(=O)c2ccc3[nH]c(-c4n[nH]c5ccccc45)nc3c2)nc2ccccc21 [Example 70, 2-(1H-Indazol-3-yl)-1H-benzoimidazole-5-carboxylic acid (1-methyl-1H-benzoimidazol-2-ylmethyl)-amide] | 0.3 to 3 µM |  |
| CSc1ccccc1CNC(=O)c1cccc2nc(-c3n[nH]c4ccccc34)[nH]c12 [Example 89, 2-(1H-Indazol-3-yl)-3H-benzoimidazole-4-carboxylic acid 2-methylsulfanyl-benzylamide] | < 0.3 µM |  |
| Cc1ccccc1-c1ccc2nc(-c3[nH]nc4ccccc34)[nH]c2c1 [Example 109, 3-(6-o-Tolyl-1H-benzoimidazol-2-yl)-2H-indazole] | 0.3 to 3 µM |  |
| CCSc1ccc(-c2ccc3nc(-c4[nH]nc5ccccc45)[nH]c3c2)cc1 [Example 134, 3-[6-(4-Ethylsulfanyl-phenyl)-1H-benzoimidazol-2-yl]-2H-indazole] | > 3 µM |  |
| c1coc(-c2ccc3nc(-c4[nH]nc5ccccc45)[nH]c3c2)c1 [Example 142, 3-(6-Furan-2-yl-1H-benzoimidazol-2-yl)-2H-indazole] | 0.3 to 3 µM |  |
| O=C(NCc1ccccc1)c1cccc2nc(-c3n[nH]c4ccccc34)[nH]c12 [Example 95, 2-(1H-Indazol-3-yl)-3H-benzoimidazole-4-carboxylic acid benzylamide] | > 3 µM |  |
| Fc1ccc(/C=C/c2ccc3nc(-c4[nH]nc5ccccc45)[nH]c3c2)cc1 [Example 138, 3-{6-[2-(4-Fluoro-phenyl)-vinyl]-1H-benzoimidazol-2-yl}-2H-indazole] | > 3 µM |  |
| CN1CCN(C(=O)c2ccc3[nH]c(-c4n[nH]c5ccccc45)nc3c2)CC1 [Example 8, 2-(1H-Indazol-3-yl)-1H-benzimidazole-5-carboxylic acid N-(N′-methyl-piperazino)amide] |  | IC50 [2]: 0.67 µM |
| CSc1ccccc1CNC(=O)c1ccc2[nH]c(-c3n[nH]c4ccccc34)nc2c1 [Example 62, 2-(1H-Indazol-3-yl)-1H-benzoimidazole-5-carboxylic acid 2-methylsulfanyl-benzylamide] | < 0.3 µM |  |
| COc1ccc2nc(-c3n[nH]c4ccccc34)[nH]c2c1 [Example 16, 5-Methoxy-2-(1H-indazol-3-yl)-1H-benzimidazole] |  | IC50 [2]: 2 µM |
| c1ccc(COc2cccc(-c3ccc4nc(-c5[nH]nc6ccccc56)[nH]c4c3)c2)cc1 [Example 143, 3-[6-(3-Benzyloxy-phenyl)-1H-benzoimidazol-2-yl]-2H-indazole] | > 3 µM |  |
| Brc1ccc2nc(-c3n[nH]c4ccccc34)[nH]c2c1 [Example 18, 5-Bromo-2-(1H-indazol-3-yl)-3H-benzimidazole] |  | inhibition at 10 µM: 91.2% |
| Cc1cc2nc(-c3cc(-c4cccs4)n[nH]3)[nH]c2cc1C [Example 21, 5,6-Dimethyl-2-(5-thiophen-2-yl-2H-pyrazol-3-yl)-1H-benzimidazole] |  | inhibition at 10 µM: 35% |
| FC(F)(F)Oc1cccc(-c2ccc3nc(-c4[nH]nc5ccccc45)[nH]c3c2)c1 [Example 136, 3-[6-(3-Trifluoromethoxy-phenyl)-1H-benzoimidazol-2-yl]-2H-indazole] | > 3 µM |  |

Source: US20050009894A1 (Aventis Pharma S.A., priority 2001, published 2005)
